# In ChEMBL document CHEMBL1614632, “Trend analysis of a database of intravenous pharmacokinetic parameters in humans for 670 drug compounds” (Drug Metab Dispos, 2008):
# Numbered stars: 1 amine (or outer) side, 2 acyl side, 3 side chain; on linkers, the order of the positions; unused ones are H or OH. Bridge positions count the residues as written; N and C are the ends. Square brackets hold non-standard residues; d marks the D form. Peptide text beside a SMILES is read from it. * marks the point of attachment. hTyr(3S-OH,4S-OH,3'-OSO3H) = N[C@H](C(=O)O)[C@H](O)[C@@H](O)c1ccc(O)c(OS(=O)(=O)O)c1; Orn(4R-OH,5R-OH) = O=C([C@H](C[C@@H](O)[C@@H](O)N[*:3])N[*:1])[*:2]; Pro(3S-OH,4S-Me) = C[C@H]1CN[C@H](C(=O)O)[C@H]1O; X1 = CCCCCOc1ccc(-c2cc(-c3ccc(C(=O)*)cc3)no2)cc1; Gln(3R-OH) = NC(=O)C[C@@H](O)[C@H](N)C(=O)O; Hyp = O=C(O)[C@@H]1C[C@@H](O)CN1
# Columns and labels:
# clinical [1] = settings: human, in vivo, iv, Vdss
# clinical [2] = settings: human, in vivo, iv, CL
# clinical [3] = settings: human, in vivo, iv
# clinical [4] = settings: human, in vivo, iv; remark: listed apart in the source
# clinical [5] = settings: human, in vivo, iv, t1/2
SMILES,Vd (clinical [1]) [L/kg],clearance (clinical [2]) [mL/min/kg],fraction unbound (clinical [3]),MRT (clinical [4]) [h],half-life (clinical [5]) [min]
CNC1(c2ccccc2Cl)CCCCC1=O (stereo not given) [KETAMINE],2.9,19,0.47,2.5,168
CCNC(=O)[C@@H]1CCCN1C(=O)[C@H](CCCNC(=N)N)NC(=O)[C@H](CC(C)C)NC(=O)[C@@H](CC(C)C)NC(=O)[C@H](Cc1ccc(O)cc1)NC(=O)[C@H](CO)NC(=O)[C@H](Cc1c[nH]c2ccccc12)NC(=O)[C@H](Cc1c[nH]cn1)NC(=O)[C@@H]1CCC(=O)N1 [LEUPROLIDE],0.38,2,0.54,3.1,174
C#C[C@]1(O)CC[C@H]2[C@@H]3CCC4=CC(=O)CC[C@@H]4[C@H]3CC[C@@]21CC [LEVONORGESTREL],1.5,1.8,0.025,14,564
C[C@@H]1CC(=O)NN=C1c1ccc(NN=C(C#N)C#N)cc1 [LEVOSIMENDAN],0.24,3.8,0.02,1.1,66
CCC[C@@H]1C[C@@H](C(=O)N[C@@H]([C@H]2O[C@H](SC)[C@H](O)[C@@H](O)[C@H]2O)[C@@H](C)O)N(C)C1 [LINCOMYCIN],1,2.1,0.14,7.5,336
O=C([O-])[O-].[Li+].[Li+] [LITHIUM CARBONATE],0.62,1.3,1,7.9,468
CNCCCC12CCC(c3ccccc31)c1ccccc12 [MAPROTILINE],45,14,0.11,54,3060
CCOC(=O)C1(c2ccccc2)CCN(C)CC1 [MEPERIDINE],2.3,4.9,0.42,6.4,474
Cc1cccc(C)c1NC(=O)C1CCCCN1C (stereo not given) [MEPIVACAINE],0.95,6.8,0.3,2.5,120
CCCC(C)(COC(N)=O)COC(N)=O [MEPROBAMATE],0.7,0.6,1,19,840
CCC1(c2cccc(O)c2)CCCCN(C)C1 (stereo not given) [MEPTAZINOL],3.3,28,0.73,2,102
Nc1ccc(O)c(C(=O)O)c1 [MESALAMINE],0.33,9.3,0.39,0.59,36.6
CN[C@@H](C)Cc1ccccc1 [METHAMPHETAMINE],4.3,4.4,0.85,16,720
COc1cccc(OC)c1C(=O)N[C@@H]1C(=O)N2[C@@H]1SC(C)(C)[C@@H]2C(=O)O [METHICILLIN],0.32,6.6,0.43,0.8,38.4
C=CCC1(C(C)C#CCC)C(=O)N=C(O)N(C)C1=O (stereo not given) [METHOHEXITAL],1.1,12,0.27,1.5,96
COc1ccc2cc1Oc1cc3c(cc1OC)CC[N+](C)(C)[C@H]3Cc1ccc(cc1)Oc1c(OC)c(OC)cc3c1[C@@H](C2)[N+](C)(C)CC3.[I-].[I-] [METOCURINE IODIDE],0.4,1.2,0.65,5.6,306
CC(=O)Nc1c(I)c(C(=O)O)c(I)c(N(C)C(C)=O)c1I [METRIZOIC ACID],0.17,2.7,1,1,78
Cc1cccc(C)c1OCC(C)N (stereo not given) [MEXILETINE],5.9,8.3,0.36,12,594
CC1(C)S[C@@H]2[C@H](NC(=O)[C@H](NC(=O)N3CCN(S(C)(=O)=O)C3=O)c3ccccc3)C(=O)N2[C@H]1C(=O)O [MEZLOCILLIN],0.09,2.1,0.7,0.71,72
COCC(=O)O[C@]1(CCN(C)CCCc2nc3ccccc3[nH]2)CCc2cc(F)ccc2[C@@H]1C(C)C [MIBEFRADIL],3.1,4,0.005,13,780

SMILES,Vd (clinical [1]) [L/kg],clearance (clinical [2]) [mL/min/kg],fraction unbound (clinical [3]),MRT (clinical [4]) [h],half-life (clinical [5]) [min]
"CCCCCOc1ccc(-c2cc(-c3ccc(C(=O)N[C@H]4C[C@@H](O)[C@@H](O)NC(=O)[C@@H]5[C@@H](O)[C@@H](C)CN5C(=O)[C@H]([C@H](O)CC(N)=O)NC(=O)[C@H]([C@H](O)[C@@H](O)c5ccc(O)c(OS(=O)(=O)O)c5)NC(=O)[C@@H]5C[C@@H](O)CN5C(=O)[C@H]([C@@H](C)O)NC4=O)cc3)no2)cc1 [MICAFUNGIN] (X1-[Orn(4R-OH,5R-OH)]T[Hyp][hTyr(3S-OH,4S-OH,3'-OSO3H)][Gln(3R-OH)][Pro(3S-OH,4S-Me)]; lactam 1-C)",0.21,0.17,0.0023,21,960
O=C1c2c(O)ccc(O)c2C(=O)c2c(NCCNCCO)ccc(NCCNCCO)c21 [MITOXANTRONE],12,7.9,0.25,25,3180
CO[C@@]1(NC(=O)C(C(=O)O)c2ccc(O)cc2)C(=O)N2C(C(=O)O)=C(CSc3nnnn3C)CO[C@@H]21 (stereo not given in full) [MOXALACTAM],0.17,0.72,0.39,3.9,174
CC(C)(C)NCC(O)COc1cccc2c1CC(O)C(O)C2 (stereo not given) [NADOLOL],1.9,2.9,0.14,11,552
CCOc1ccc2ccccc2c1C(=O)N[C@@H]1C(=O)N2[C@@H]1SC(C)(C)[C@@H]2C(=O)O [NAFCILLIN],0.22,3.3,0.13,1.1,42
CCN[C@@H]1C[C@H](N)[C@@H](O[C@H]2OC(CN)=CC[C@H]2N)[C@H](O)[C@H]1O[C@H]1OC[C@](C)(O)[C@H](NC)[C@H]1O [NETILMICIN],0.073,0.55,1,2.2,192
CCOC(=O)C1=C(C)NC(C)=C(C(=O)OC)C1c1cccc([N+](=O)[O-])c1 (stereo not given) [NITRENDIPINE],6.1,25,0.02,4.1,492
COc1cc([C@@H]2c3cc4c(cc3C(OC3OC5COC(C)OC5C(O)C3N)C3COC(=O)[C@@H]32)OCO4)cc(OC)c1O (stereo not given in full) [NK-611],0.3,0.4,0.013,17,840
Cc1onc(-c2ccccc2)c1C(=O)N[C@@H]1C(=O)N2[C@@H]1SC(C)(C)[C@@H]2C(=O)O [OXACILLIN],0.19,6.3,0.07,0.5,42
CN(C)[C@@H]1C(O)=C(C(N)=O)C(=O)[C@@]2(O)C(O)=C3C(=O)c4c(O)cccc4[C@@](C)(O)[C@H]3[C@H](O)[C@@H]12 [OXYTETRACYCLINE],1.7,2,0.9,12,600
CC(=O)O[C@H]1C(=O)[C@@]2(C)[C@H]([C@H](OC(=O)c3ccccc3)[C@]3(O)C[C@H](OC(=O)[C@H](O)[C@@H](NC(=O)c4ccccc4)c4ccccc4)C(C)=C1C3(C)C)[C@]1(OC(C)=O)CO[C@@H]1C[C@@H]2O [PACLITAXEL],3,6.4,0.12,7.8,660
O=C1c2cccc3c2[C@H](CCC3)CN1[C@@H]1CN2CCC1CC2 [PALONOSETRON],6.3,2.6,0.38,40,2340
Fc1ccc([C@@H]2CCNC[C@H]2COc2ccc3c(c2)OCO3)cc1 [PAROXETINE],18,18,0.06,17,780
CC1(C)S[C@@H]2[C@H](NC(=O)Cc3ccccc3)C(=O)N2[C@H]1C(=O)O [PENICILLIN G],0.24,6.9,0.4,0.58,42
CCCC(C)C1(CC)C(=O)NC(=O)NC1=O (stereo not given) [PENTOBARBITAL],0.91,0.47,0.39,32,1320
OCCN1CCN(CCCN2c3ccccc3Sc3ccc(Cl)cc32)CC1 [PERPHENAZINE],18,27,0.07,11,564
CC(Oc1ccccc1)C(=O)N[C@@H]1C(=O)N2[C@@H]1SC(C)(C)[C@@H]2C(=O)O (stereo not given in full) [PHENETHICILLIN],0.3,4.2,0.25,1.2,54.6
CC(=O)O[C@H]1C[C@]2(C)CC[C@H]3[C@@H]4C[C@H](N5CC[N+](C)(C)CC5)[C@H](OC(C)=O)[C@@]4(C)CC[C@@H]3[C@@]2(C)C[C@@H]1N1CC[N+](C)(C)CC1.[Br-].[Br-] [PIPERCURONIUM],0.35,3,0.98,1.9,114
NS(=O)(=O)c1cc(C(=O)O)cc(N2CCCC2)c1Oc1ccccc1 [PIRETANIDE],0.17,3.1,0.058,0.91,78
CCCNC(C)C(=O)Nc1ccccc1C (stereo not given) [PRILOCAINE],3.7,29,0.72,2.2,108
